Measurements as given in publication PMC8760490, “Discovery of novel furanylbenzamide inhibitors that target oncogenic tyrosine phosphatase SHP2 in leukemia cells” (The Journal of Biological Chemistry, 2021).

Target: T1, PTP1B (1–300) catalytic domain (Homo sapiens, UniProt P18031)
T1 construct: Recombinant human PTP1B (1–300); His tag (pET-15b) (N); made in house; host or cells: E. coli BL21(DE3)
T1 sequence (P18031 1-300): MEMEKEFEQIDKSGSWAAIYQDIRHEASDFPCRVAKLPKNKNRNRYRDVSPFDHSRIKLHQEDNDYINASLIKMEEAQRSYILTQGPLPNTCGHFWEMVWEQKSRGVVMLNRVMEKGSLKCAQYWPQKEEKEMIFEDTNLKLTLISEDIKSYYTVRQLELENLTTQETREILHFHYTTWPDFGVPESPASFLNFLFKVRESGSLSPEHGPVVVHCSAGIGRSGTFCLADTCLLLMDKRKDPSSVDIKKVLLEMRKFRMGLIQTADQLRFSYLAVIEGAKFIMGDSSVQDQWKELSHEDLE
Test: DiFMUP phosphatase inhibition assay, PTP1B
Assay type: biochemical
Details: for IC50: catalytic domain, DiFMUP at Km (25 μM); for selectivity for SHP2 over PTP1B: from IC50 values against catalytic domains
Method: Selectivity is one of the biggest challenges in PTP inhibitor development. […] Similar to SHP2, we adapted a 384-well plate format DiFMUP assay for recombinant PTP1B and STEP and performed Michaelis–Menten experiments to determine DiFMUP Km values for each phosphatase. IC50 values of our inhibitors for PTP1B and STEP were determined in 10-point dose–response assays with DiFMUP used at the concentration corresponding to the respective Km value. […] Other inhibitors with good relative selectivity for SHP2 included SBI-4668 (13-fold selective over PTP1B; 73-fold selective over STEP) and SBI-3404 (fivefold selective over PTP1B; >71-fold selective over STEP).
Recombinant human full-length SHP2 (1–594) WT and E76K mutants, as well as the SHP2cat (248–527), were expressed and purified as described before ([36], [41]). Recombinant human PTP1B (1–300) and the codon-optimized STEP (280–566) catalytic domains were cloned into PET-15b and expressed as N-His-tagged fusion proteins. For expression, transformed BL21(DE3) cells were grown and induced similar as described for SHP2. Collected cells were resuspended in lysis buffer (25 mM Tris, pH 7.5, 300 mM NaCl, 50 mM imidazole, and 10% glycerol) with 100 mg/l RNaseA and were lysed with two passages using a microfluidizer. The lysate was clarified by centrifugation at 15,000g for 50 min and applied to nickel–nitrilotriacetic acid resin. The column resin was washed, and the PTP1B or STEP protein was eluted in lysis buffer at 300 mM imidazole. The PTP1B or STEP protein was further purified by S75 size-exclusion chromatography in 50 mM Tris, pH 7.5, 50 mM NaCl. The eluted peak fractions were supplemented with tris(2-carboxyethyl)phosphine to 10 mM, concentrated by ultrafiltration, and stored at −80 °C. The purified yield of PTP1B was 33 mg/l cell culture; the yield of STEP was 16 mg/l cell culture.
SHP2 inhibitors were tested at RT in a 384-well plate format standard phosphatase fluorescence intensity assay using DiFMUP (Invitrogen/Thermo Fisher Scientific) as a substrate and a total reaction volume of 25 μl. SHP2 inhibitors or vehicle (DMSO) were spotted in triplicate into a black Greiner FLUOTRAC 200 384-well microplate (catalog no.: 781076; Greiner) for a 10-point dose–response assay using an Echo 555 Liquid Handler (Labcyte, Inc). PTP working solutions were prepared at a 0.625 nM concentration (for a final concentration of 0.5 nM) in buffer containing 50 mM Bis–Tris, pH 6.0, 50 mM NaCl, 5 mM DTT, and 0.01% Tween-20. Prior to the assay, a dually phosphorylated IRS-1 peptide (625 nM [500 nM final] ([30])) was added to full-length WT SHP2 working solutions and incubated for 20 min. DiFMUP working solutions at 5× final concentration were prepared in 50 mM Bis–Tris, pH 6.0, 50 mM NaCl, and 0.01% Tween-20. About 20 μl of PTP working solution was dispensed into the microplate and incubated with inhibitor for 20 min at RT. […] The reaction was initiated by addition of 5 μl DiFMUP working solutions. Fluorescence intensity was measured in kinetic mode (every minute for 7 or 10 min) using a Tecan Spark Multimode Microplate Reader (Tecan) with an excitation wavelength of 360 nm and an emission wavelength of 460 nm. The initial rates were determined from the linear progression curves of the PTP reaction. The nonenzymatic hydrolysis of the substrate was corrected by using a control without addition of enzyme. IC50 values were calculated from the corrected initial rates by nonlinear regression using the program GraphPad Prism, version 8 (GraphPad Software, Inc) software. Dose–response inhibition assays of SHP2cat using the substrate OMFP were performed similarly as described previously for DiFMUP. OMFP was used at a concentration corresponding to its Km value for SHP2cat (50 μM final). Fluorescence intensity was measured in kinetic mode (every minute for 10 min) using a Tecan Spark Multimode Microplate Reader with an excitation wavelength of 485 nm and an emission wavelength of 535 nm. […]

| SMILES | IC50 [µM] | selectivity for SHP2 over PTP1B |
| --- | --- | --- |
| Nc1ccc(NC(=O)c2cc(-c3ccc(/C=C4\Sc5ccccc5C4=O)o3)ccc2O)cc1 [SBI-2130, (Z)-N-(4-Aminophenyl)-2-hydroxy-5-(5-((3-oxobenzo[b]thiophen-2(3H)-ylidene)methyl)furan-2-yl)benzamide] | 6.8 | 31 fold |
| N#Cc1cc(-c2ccc(/C=C3\Sc4ccccc4C3=O)o2)ccc1O [SBI-3404, (Z)-2-Hydroxy-5-(5-((3-oxobenzo[b]thiophen-2(3H)-ylidene)methyl)furan-2-yl)benzonitrile] | 7.4 | fivefold |
| O=C(Nc1ccccc1)c1cc(-c2ccc(/C=C3\Sc4ccccc4C3=O)o2)ccc1O [SBI-4668, (Z)-2-Hydroxy-5-(5-((3-oxobenzo[b]thiophen-2(3H)-ylidene)methyl)furan-2-yl)-N-phenylbenzamide] | 9.4 | 13 fold |
| O=C1/C(=C/c2ccc(-c3ccc(O)c(-c4nn[nH]n4)c3)o2)Sc2ccccc21 [SBI-3405, (Z)-2-((5-(4-Hydroxy-3-(2H-tetrazol-5-yl)phenyl)furan-2-yl)methylene)benzo[b]thiophen-3(2H)-one] | 5.3 | – |
| O=C1CCCC1=Cc1ccc(-c2ccc(O)c(C(=O)Nc3ccccc3)c2)o1 [SBI-3192, 2-Hydroxy-5-(5-((2-oxocyclopentylidene)methyl)furan-2-yl)-N-phenylbenzamide] | 1.9 | – |
